Experimental data from ChEMBL document CHEMBL1142732, “In-depth study of tripeptide-based alpha-ketoheterocycles as inhibitors of thrombin. Effective utilization of the S1' subsite and its implications to structure-based drug design” (J Med Chem, 2005).

How the values were obtained:
[1] = biological target: T1, Serine protease 1 (Bos taurus, UniProt P00760); assay: Binding affinity against bovine trypsin; NA=Not active at 1 uM
T1 sequence (P00760 whole entry): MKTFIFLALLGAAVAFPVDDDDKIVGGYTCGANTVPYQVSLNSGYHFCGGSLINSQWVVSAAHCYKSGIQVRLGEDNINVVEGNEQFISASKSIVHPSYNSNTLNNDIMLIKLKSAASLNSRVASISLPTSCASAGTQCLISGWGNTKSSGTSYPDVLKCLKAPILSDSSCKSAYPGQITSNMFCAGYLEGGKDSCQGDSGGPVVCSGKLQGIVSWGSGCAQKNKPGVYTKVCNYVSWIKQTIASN

[2] = test system: Cavia porcellus; assay: Percent change in blood pressure in guinea pig at 3 mg/kg dose
[3] = biological target: T1, Serine protease 1; assay: Binding affinity against bovine trypsin
[4] = species on record: Homo sapiens; assay: Inhibitory concentration against gel filtered platelet aggregation induced by alpha thrombin; format: functional
[5] = biological target: T2, Prothrombin (Homo sapiens, UniProt P00734); assay: Inhibitory concentration against human alpha thrombin
[6] = biological target: T2, Prothrombin; assay: Binding affinity determined against human alpha thrombin
[7] = test system: Cavia porcellus; assay: Percent change in blood pressure in guinea pig at 10 mg/kg dose
[8] = biological target: T1, Serine protease 1; assay: Inhibitory concentration against bovine trypsin; NT=Not determined
[9] = biological target: T2, Prothrombin; assay: Inhibition constant against human alpha thrombin
[10] = biological target: T1, Serine protease 1; assay: Inhibitory concentration against bovine trypsin; Not determined
[11] = biological target: T1, Serine protease 1; assay: Inhibitory concentration against bovine trypsin
[12] = biological target: T2, Prothrombin; assay: Binding affinity against human alpha thrombin; […]
[13] = Oral half life was determined in conscious rat after 10 mg/kg dosage through gavage; format: ADME, organism-based; design: dose 10 mg/kg; settings: in vivo
[14] = Oral bioavailability was determined in conscious rat after 10 mg/kg dosage through gavage; format: ADME, organism-based; settings: in vivo
[15] = species on record: Cavia porcellus; assay: animal or person; settings: Blood, iv
Description: In vivo effective intravenous dose for eliciting a 25% decrease in blood pressure in anesthetized Guinea pig

[16] = Half life was determined in rat after an intravenous dose of 1 mg/kg; format: ADME, organism-based; design: dose 1 mg/kg, route intravenous; settings: in vivo
[17] = test system: Canis familiaris; assay: In vivo effective intravenous dose for that reduces thrombus weight accumulation on a silk fiber by 50% was determined in Dog arteriovenous shunt model; format: functional; settings: Canis lupus familiaris
[18] = test system: Oryctolagus cuniculus; assay: In vivo effective intravenous dose for that was determined in Rabbit deep vein thrombosis model
[19] = species on record: Homo sapiens; assay: Inhibitory concentration of the compound was determined against gel filtered platelet aggregation induced by alpha thrombin; format: functional
[20] = biological target: T2, Prothrombin; assay: Inhibitory concentration against human alpha thrombin; NA=Not active at 1 uM
[21] = biological target: T2, Prothrombin; assay: Inhibitory concentration against human alpha thrombin; NT=Not active at 300 uM
[22] = biological target: T1, Serine protease 1; assay: Binding affinity against bovine trypsin; NT=Not active at 100 uM
[23] = biological target: T2, Prothrombin; assay: Inhibitory concentration against human alpha thrombin; NA = Not active at 1 uM
[24] = test system: Cavia porcellus; assay: Percent change in blood pressure in guinea pig at 1 mg/kg dose
[25] = biological target: T1, Serine protease 1; assay: Inhibitory concentration against bovine trypsin; ND=Not determined
[26] = biological target: T2, Prothrombin; assay: Binding affinity against human alpha thrombin; SB = Slow-binding

| SMILES | Ki [3] [nM] | IC50 [4] [nM] | IC50 [5] [nM] | Ki [6] [nM] | Delta BP [7] [%] | further results |
| --- | --- | --- | --- | --- | --- | --- |
| CCCC[C@H](NC(=O)[C@@H]1CCCN1C(=O)[C@@H](Cc1ccccc1)NC)C(=O)c1nc2ccccc2s1 |  |  |  |  |  | Ki [1]: Not Active |
| CN[C@H](Cc1ccccc1)C(=O)N1CCC[C@H]1C(=O)NC(C(=O)c1nc2ccccc2s1)C1CCC(N)CC1 (stereo partly specified) | 330 | 76 | 1900 | 110 |  | Delta BP [2]: -25% |
| CN[C@H](Cc1ccccc1)C(=O)N1CCC[C@H]1C(=O)NC(CCCN=C(N)N)C(=O)c1nc2c(s1)CCCC2 (stereo partly specified) | 4.4 | 22 | 80 | 3.4 | -70 |  |
| CN[C@H](Cc1ccccc1)C(=O)N1CCC[C@H]1C(=O)N[C@@H](CCCN=C(N)N)Cc1nc2ccccc2s1 |  |  |  |  |  | IC50 [8]: 32000 nM |
| CN[C@H](Cc1ccccc1)C(=O)N[C@H](C(=O)NC(CCCN=C(N)N)C(=O)c1nc2ccccc2s1)C(C)C (stereo partly specified) | 1.5 | 180 | 440 | 21 |  | Delta BP [2]: -47%; Ki [9]: 21 nM |
| CN[C@H](Cc1ccccc1)C(=O)N1CCC[C@H]1C(=O)N[C@H](CCCN=C(N)N)Cc1nc2ccccc2s1 |  |  |  |  |  | IC50 [10]: 30000 nM |
| N=C(N)NCCCC(NC(=O)[C@@H]1CCCN1C(=O)N[C@H](C=O)Cc1ccccc1)C(=O)c1nc2ccccc2s1 (stereo partly specified) |  |  | 17000 |  |  | IC50 [11]: 5.8 nM |
| N=C(N)NCCC[C@H](NC(=O)CN1CCCC[C@H](NS(=O)(=O)Cc2ccccc2)C1=O)C(=O)c1nc2ccccc2s1 | 9.4 | 47 | 270 | 16 | -39 |  |
| CN[C@@H](C(=O)N1CCC[C@H]1C(=O)NC(CCCN=C(N)N)C(=O)c1nc2ccccc2s1)C(c1ccccc1)c1ccccc1 (stereo partly specified) |  | 43 | 4.5 |  |  | Delta BP [2]: -54%; Ki [12]: Slow Binding; IC50 [11]: 352 nM |
| CN[C@H](Cc1ccccc1)C(=O)N1CCC[C@H]1C(=O)NC(CCCN=C(N)N)C(=O)c1nc2ccc(C(=O)O)cc2s1 (stereo partly specified) | 2.7 |  |  |  | -32 | half-life [13]: 60 min; bioavailability [14]: 3%; ED25 [15]: 13 mg/kg; half-life [16]: 25 min; ED50 [17]: 0.14 mg/kg; ED50 [18]: 0.43 mg/kg; IC50 [19]: 41 nM |
| CN[C@H](Cc1ccccc1)C(=O)N1CCC[C@H]1C(=O)N[C@@H](Cc1ccccc1)C(=O)c1nc2ccccc2s1 | 12000 |  |  | 7100 |  | IC50 [20]: Not Active |
| N=C(N)NCCCCC(=O)c1nc2ccccc2s1 |  |  |  |  |  | IC50 [21]: Not Active; Ki [22]: Not Active |
| CNCCCC[C@@H](NC(=O)[C@@H]1CCCN1C(=O)[C@@H](Cc1ccccc1)NC)C(=O)c1nc2ccccc2s1 | 1000 |  |  | 3500 |  | IC50 [20]: Not Active |
| N=C(N)NCCCC(NC(=O)[C@@H]1CCCN1C(=O)CC(c1ccccc1)c1ccccc1)C(=O)c1nc2ccccc2s1 (stereo partly specified) | 22 | 29 | 11 | 1.1 |  | Delta BP [2]: -25%; Ki [9]: 3.1 nM |
| CN[C@H](Cc1ccccc1)C(=O)N1CCC[C@H]1C(=O)NC(CCCN=C(N)N)C(=O)c1nc2ccc(C(N)=O)cc2s1 (stereo partly specified) | 0.3 |  |  |  |  | Ki [12]: Slow Binding |
| CNCCCC[C@H](NC(=O)[C@@H]1CCCN1C(=O)[C@@H](Cc1ccccc1)NC)C(=O)c1nc2ccccc2s1 | 1200 | 5200 |  | 3700 |  | IC50 [23]: Not Active; Delta BP [24]: -16% |
| CN[C@H](Cc1ccccc1)C(=O)N1CCC[C@H]1C(=O)N[C@@H](CCCCN=C(N)N)C(=O)c1nc2ccccc2s1 |  |  | 8400 |  |  | IC50 [11]: 630 nM |
| CN[C@H](Cc1ccccc1)C(=O)N1CCC[C@H]1C(=O)N[C@@H](C(=O)c1nc2ccccc2s1)C1CCC(CN)CC1 (stereo partly specified) | 4000 |  |  | 1450 |  | IC50 [20]: Not Active |
| CN[C@H](Cc1ccccc1)C(=O)N1CCC[C@H]1C(=O)N[C@@H](CCCN=C(N)N)C(=O)c1nc2ccccc2s1 |  | 32 | 29 |  |  | Delta BP [2]: -85%; ED25 [15]: 0.9 mg/kg; ED50 [17]: 0.46 mg/kg; ED50 [18]: 0.25 mg/kg; Ki [9]: 0.18 nM |
| CN[C@H](Cc1ccccc1)C(=O)N1CCC[C@H]1C(=O)N[C@@H](CCCNC(=N)N)C(=O)c1nccn1C | 5800 | 230 | 1500 |  | -68 |  |
| CN[C@H](Cc1ccccc1)C(=O)N1CCC[C@H]1C(=O)N[C@H](CC(=O)c1nc2ccccc2s1)[C@H]1CC[C@H](N)CC1 |  |  | > 100000 |  |  | IC50 [25]: 58000 nM |
| CN[C@H](Cc1ccccc1)C(=O)N1CCC[C@H]1C(=O)N[C@@H](CC(=O)c1nc2ccccc2s1)[C@H]1CC[C@H](N)CC1 |  |  | > 100000 |  |  | IC50 [25]: 22000 nM |
| CN[C@H](Cc1ccccc1)C(=O)N1CCC[C@H]1C(=O)NC(CCCN=C(N)N)C(=O)c1nc2ccc3ccccc3c2s1 (stereo partly specified) | 15 |  | 60 | 0.58 | -51 |  |
| CN[C@H](Cc1ccccc1)C(=O)N1CCC[C@H]1C(=O)N[C@@H](Cc1ccc(C(=N)N)cc1)C(=O)c1nc2ccccc2s1 |  |  |  | 1400 |  | IC50 [11]: 540 nM |
| N=C(N)NCCCC(NC(=O)[C@@H]1CCCN1C(=O)C(O)C1c2ccccc2-c2ccccc21)C(=O)c1nc2ccccc2s1 (stereo partly specified) | 2 |  | 95 | 3.1 | -71 |  |
| CN[C@H](Cc1ccccc1)C(=O)N1CCC[C@H]1C(=O)N[C@@](C)(CCCN=C(N)N)C(=O)c1nc2ccccc2s1 | 6000 |  | 3700 |  |  | Ki [26]: 430 nM |
| CN[C@H](Cc1ccccc1)C(=O)N1CCC[C@H]1C(=O)NC(CCCN=C(N)N)C(=O)c1nc2ccc(C(=O)OC)cc2s1 (stereo partly specified) | 31 | 39 |  |  | -16 | ED25 [15]: 13.4 mg/kg; ED50 [17]: 0.47 mg/kg; ED50 [18]: 0.35 mg/kg |
| N=C(N)NCCCC(NC(=O)[C@@H]1CCCN1C(=O)[C@@H](CC1CCCCC1)NCC(=O)O)C(=O)c1nc2ccccc2s1 (stereo partly specified) | 22 | 16 | 29 | 0.36 | -47 |  |
| CS(=O)(=O)CC[C@H](NS(=O)(=O)Cc1ccccc1)C(=O)N1CCC[C@H]1C(=O)N[C@@H](CCCNC(=N)N)C(=O)c1nc2ccccc2s1 | 2.7 | 37 | 95 | 1.5 | -64 |  |
| CCS(=O)(=O)N[C@H](Cc1ccccc1)C(=O)N1CCC[C@H]1C(=O)NC(CCCN=C(N)N)C(=O)c1nc2ccccc2s1 (stereo partly specified) | 31 | 46 | 500 | 24 | -36 | Ki [9]: 24 nM |
